Reference: PMC4670726, “Systematic discovery of linear binding motifs targeting an ancient protein interaction surface on MAP kinases” (Molecular Systems Biology, 2015)
Ends that are not written are not given here.

Legend:
JNK1 = molecular target: T1, JNK1 (Homo sapiens, UniProt P45983); test: Fluorescence polarization (FP) competitive protein-peptide binding assay, JNK1; settings: FP competition titration of unlabeled synthetic peptide against 50 nM fluorescently labeled pep JIP3, MAPK at ~60–80% complex formation, 384-well, triplicates, average FP signal fitted; limit of quantitation ~100 μM
T1 construct: hexa-histidine; made in house; host or cells: E. coli (Rosetta pLysS)
Procedure: (§1) In addition to confirming binding in the MAPK‐docking groove, the dissociation constant (Kd) of unlabeled test peptides could also be calculated.
(§2) Dashes indicate cases where the curves could not be fitted (the Kd is above the limit of quantitation of this assay, approximately ~100 μM). Peptides are grouped in two clusters, the first being the strong JNK1 binders (frequently with little or no ERK2/p38α‐binding ability). The second group (below the magenta line) contains peptides with strong ERK2‐ and p38α‐binding capacity (but often little or no affinity toward JNK1). […] Gab3+ is the ortholog of a peptide from Gab1 which was tested as positive in the dot‐blot experiments. The two Gab3 motifs are related neither by structure nor by evolutionary origin. […]
(§3) For fluorescence polarization (FP)‐based binding affinity measurements, known MAPK‐docking groove‐binding peptides were N‐terminally labeled with carboxyfluorescein or carboxytetramethylrhodamine (for ERK2, pepRSK1: […]; for p38α, pepMK2: […] or pepMEF2A: […]; for JNK1, pep JIP3: […]). […] Subsequently, increasing amounts of chemically synthesized test peptides were added, and the FP signal was measured with a Synergy H4 (BioTek Instruments) plate reader in 384‐well plates. The Ki for each unlabeled peptide was determined by fitting the data to a competition binding equation. […]

p38α = molecular target: T2, p38α (Homo sapiens, UniProt Q16539); test: Fluorescence polarization (FP) competitive protein-peptide binding assay, p38α; settings: FP competition titration of unlabeled synthetic peptide against 50 nM fluorescently labeled pepMK2 or pepMEF2A, MAPK at ~60–80% complex formation, 384-well, triplicates, average FP signal fitted; limit of quantitation ~100 μM
T2 construct: hexa-histidine; made in house; host or cells: E. coli (Rosetta pLysS)
Procedure: as §1, §2, §3

ERK2 = molecular target: T3, ERK2 (Homo sapiens, UniProt P28482); test: Fluorescence polarization (FP) competitive protein-peptide binding assay, ERK2; settings: FP competition titration of unlabeled synthetic peptide against 50 nM fluorescently labeled pepRSK1, MAPK at ~60–80% complex formation, 384-well, triplicates, average FP signal fitted; limit of quantitation ~100 μM
T3 construct: hexa-histidine; made in house; host or cells: E. coli (Rosetta pLysS)
Procedure: as §1, §2, §3

T2 sequence (Q16539 whole entry): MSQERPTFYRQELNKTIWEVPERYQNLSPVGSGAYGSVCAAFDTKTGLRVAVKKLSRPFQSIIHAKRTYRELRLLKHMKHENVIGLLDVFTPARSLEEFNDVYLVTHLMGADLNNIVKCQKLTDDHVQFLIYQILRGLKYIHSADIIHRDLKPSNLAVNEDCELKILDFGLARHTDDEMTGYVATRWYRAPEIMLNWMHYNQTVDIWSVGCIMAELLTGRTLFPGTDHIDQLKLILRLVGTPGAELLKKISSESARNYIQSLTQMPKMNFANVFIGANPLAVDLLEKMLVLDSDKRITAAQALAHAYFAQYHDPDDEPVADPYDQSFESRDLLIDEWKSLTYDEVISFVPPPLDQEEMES
T1 sequence (P45983 whole entry): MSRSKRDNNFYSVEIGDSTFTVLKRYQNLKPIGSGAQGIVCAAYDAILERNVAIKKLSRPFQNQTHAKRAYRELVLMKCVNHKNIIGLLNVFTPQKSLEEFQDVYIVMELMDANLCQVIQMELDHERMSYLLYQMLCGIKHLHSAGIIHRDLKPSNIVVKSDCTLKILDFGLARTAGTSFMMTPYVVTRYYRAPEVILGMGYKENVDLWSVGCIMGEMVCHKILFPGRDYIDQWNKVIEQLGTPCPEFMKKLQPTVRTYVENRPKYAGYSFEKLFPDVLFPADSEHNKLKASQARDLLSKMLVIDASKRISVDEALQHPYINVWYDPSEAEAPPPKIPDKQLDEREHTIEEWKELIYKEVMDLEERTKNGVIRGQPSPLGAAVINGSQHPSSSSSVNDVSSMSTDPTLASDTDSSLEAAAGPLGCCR
T3 sequence (P28482 whole entry): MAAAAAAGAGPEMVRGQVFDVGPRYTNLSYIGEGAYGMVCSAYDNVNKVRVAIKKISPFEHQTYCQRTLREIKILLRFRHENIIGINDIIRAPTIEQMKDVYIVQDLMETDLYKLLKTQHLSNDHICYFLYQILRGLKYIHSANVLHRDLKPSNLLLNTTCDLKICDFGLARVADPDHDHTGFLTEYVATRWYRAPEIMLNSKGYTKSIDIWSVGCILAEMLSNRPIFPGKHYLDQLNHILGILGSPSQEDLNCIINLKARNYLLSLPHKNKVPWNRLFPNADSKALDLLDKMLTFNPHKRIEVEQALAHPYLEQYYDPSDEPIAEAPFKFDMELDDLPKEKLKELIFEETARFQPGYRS

Sequence: KPQRKSRPPPLDLRNLS [GAB3+]
- Kd (JNK1): 13.2 µM
- Kd (p38α): 2 µM
- Kd (ERK2): 0.7 µM
